Assay results taken from paper PMC9569420 (Communications Biology, 2022).
Values joined by “and” are separate entries in the source; they are usually repeats but may differ in a detail not shown here. Equal values may be shown once.

Experiments:
[1] = target: T1, STK21/CIT (Homo sapiens, UniProt O14578); assay: HotSpot kinase assay; format: biochemical; conditions: read-out: % Enzyme Activity (relative to DMSO controls)
T1 construct: purchased Reaction Biology Corporation

[2] = target: T2, CLK2 (Homo sapiens, UniProt P49760); assay: HotSpot kinase assay; format: biochemical; conditions: read-out: % Enzyme Activity (relative to DMSO controls)
T2 construct: purchased Reaction Biology Corporation
T2 sequence (P49760 whole entry): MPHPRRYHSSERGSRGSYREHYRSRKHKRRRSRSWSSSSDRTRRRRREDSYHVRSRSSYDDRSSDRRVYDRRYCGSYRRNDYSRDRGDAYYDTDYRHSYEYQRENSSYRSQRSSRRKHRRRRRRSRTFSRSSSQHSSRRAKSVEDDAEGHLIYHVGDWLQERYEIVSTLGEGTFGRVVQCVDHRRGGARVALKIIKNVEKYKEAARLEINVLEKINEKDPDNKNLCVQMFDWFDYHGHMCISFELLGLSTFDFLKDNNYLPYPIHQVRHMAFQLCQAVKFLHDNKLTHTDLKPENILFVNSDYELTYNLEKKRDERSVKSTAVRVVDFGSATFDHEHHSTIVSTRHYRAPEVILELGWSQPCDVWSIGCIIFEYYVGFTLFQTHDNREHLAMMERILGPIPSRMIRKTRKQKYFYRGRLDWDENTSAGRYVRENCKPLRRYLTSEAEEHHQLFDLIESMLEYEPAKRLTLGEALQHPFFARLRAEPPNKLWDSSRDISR

[3] = target: T3, CDK14/cyclin Y (PFTK1) (Homo sapiens, UniProt O94921); assay: HotSpot kinase assay; format: biochemical; conditions: read-out: % Enzyme Activity (relative to DMSO controls)
T3 construct: purchased Reaction Biology Corporation
T3 sequence (O94921 whole entry): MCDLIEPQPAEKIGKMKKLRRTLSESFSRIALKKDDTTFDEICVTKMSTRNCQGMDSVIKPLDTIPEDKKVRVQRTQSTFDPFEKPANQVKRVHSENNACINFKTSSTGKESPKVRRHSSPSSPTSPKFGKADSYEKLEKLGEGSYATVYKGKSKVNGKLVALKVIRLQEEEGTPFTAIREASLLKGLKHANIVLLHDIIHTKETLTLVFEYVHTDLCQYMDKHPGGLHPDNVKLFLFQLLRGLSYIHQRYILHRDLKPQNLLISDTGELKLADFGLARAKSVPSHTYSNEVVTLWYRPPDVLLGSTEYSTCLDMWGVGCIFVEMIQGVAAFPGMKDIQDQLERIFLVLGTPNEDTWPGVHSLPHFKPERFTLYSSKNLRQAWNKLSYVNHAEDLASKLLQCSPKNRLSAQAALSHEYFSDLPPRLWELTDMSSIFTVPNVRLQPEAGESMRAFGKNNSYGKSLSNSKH
T3 sequence (Q8ND76 whole entry partner): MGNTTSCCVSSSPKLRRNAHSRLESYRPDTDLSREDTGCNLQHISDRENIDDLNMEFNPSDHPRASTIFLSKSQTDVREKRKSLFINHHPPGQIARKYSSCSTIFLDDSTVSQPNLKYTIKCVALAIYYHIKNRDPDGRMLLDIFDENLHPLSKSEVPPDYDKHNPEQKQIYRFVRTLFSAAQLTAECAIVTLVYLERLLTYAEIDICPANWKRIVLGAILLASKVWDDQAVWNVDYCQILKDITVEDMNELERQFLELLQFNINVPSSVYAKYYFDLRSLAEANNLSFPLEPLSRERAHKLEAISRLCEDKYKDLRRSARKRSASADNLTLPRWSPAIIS

[4] = target: T4, ROCK1 (Homo sapiens, UniProt Q13464); assay: HotSpot kinase assay; format: biochemical; conditions: read-out: % Enzyme Activity (relative to DMSO controls)
T4 construct: purchased Reaction Biology Corporation

[5] = target: T5, CDK8/cyclin C (Homo sapiens, UniProt P49336); assay: HotSpot kinase assay; format: biochemical; conditions: read-out: % Enzyme Activity (relative to DMSO controls)
T5 construct: purchased Reaction Biology Corporation

[6] = system: HaCat cells; assay: apoptosis assay (activated caspases, SYTOX Green); format: cell-based, human; conditions: 10µM
Protocol: Cell proliferation and viability were determined using the Cell Titer 96 Aqueous One Solution and optical density was determined using a SpectraMax M5e Molecular Devices multidetection microplate reader. […] The cells were then fixed and stained for activated caspases (red) and SYTOX Green (for integrity of plasma membrane) by Image-iT^TM LIVE red Poly Caspase Detection kit. Nuclei were stained with Hoechst. Images were acquired by laser confocal microscope ZeissLive/DuoScan equipped with oil immersion objectives 63 × 1.1 and captured in an optical slice of 0.37 µm with appropriate filters. Alternatively, immunoblots were prepared and probed with antibodies to cleaved PARP-1 or cleaved caspase 8.

[7] = target: T6, ZIPK/DAPK3 (Homo sapiens, UniProt O43293); assay: HotSpot kinase assay; format: biochemical; conditions: read-out: % Enzyme Activity (relative to DMSO controls)
T6 construct: purchased Reaction Biology Corporation

[8] = target: T7, MYO3A (Homo sapiens, UniProt Q8NEV4); assay: HotSpot kinase assay; format: biochemical; conditions: read-out: % Enzyme Activity (relative to DMSO controls)
T7 construct: purchased Reaction Biology Corporation
T7 sequence (Q8NEV4 whole entry): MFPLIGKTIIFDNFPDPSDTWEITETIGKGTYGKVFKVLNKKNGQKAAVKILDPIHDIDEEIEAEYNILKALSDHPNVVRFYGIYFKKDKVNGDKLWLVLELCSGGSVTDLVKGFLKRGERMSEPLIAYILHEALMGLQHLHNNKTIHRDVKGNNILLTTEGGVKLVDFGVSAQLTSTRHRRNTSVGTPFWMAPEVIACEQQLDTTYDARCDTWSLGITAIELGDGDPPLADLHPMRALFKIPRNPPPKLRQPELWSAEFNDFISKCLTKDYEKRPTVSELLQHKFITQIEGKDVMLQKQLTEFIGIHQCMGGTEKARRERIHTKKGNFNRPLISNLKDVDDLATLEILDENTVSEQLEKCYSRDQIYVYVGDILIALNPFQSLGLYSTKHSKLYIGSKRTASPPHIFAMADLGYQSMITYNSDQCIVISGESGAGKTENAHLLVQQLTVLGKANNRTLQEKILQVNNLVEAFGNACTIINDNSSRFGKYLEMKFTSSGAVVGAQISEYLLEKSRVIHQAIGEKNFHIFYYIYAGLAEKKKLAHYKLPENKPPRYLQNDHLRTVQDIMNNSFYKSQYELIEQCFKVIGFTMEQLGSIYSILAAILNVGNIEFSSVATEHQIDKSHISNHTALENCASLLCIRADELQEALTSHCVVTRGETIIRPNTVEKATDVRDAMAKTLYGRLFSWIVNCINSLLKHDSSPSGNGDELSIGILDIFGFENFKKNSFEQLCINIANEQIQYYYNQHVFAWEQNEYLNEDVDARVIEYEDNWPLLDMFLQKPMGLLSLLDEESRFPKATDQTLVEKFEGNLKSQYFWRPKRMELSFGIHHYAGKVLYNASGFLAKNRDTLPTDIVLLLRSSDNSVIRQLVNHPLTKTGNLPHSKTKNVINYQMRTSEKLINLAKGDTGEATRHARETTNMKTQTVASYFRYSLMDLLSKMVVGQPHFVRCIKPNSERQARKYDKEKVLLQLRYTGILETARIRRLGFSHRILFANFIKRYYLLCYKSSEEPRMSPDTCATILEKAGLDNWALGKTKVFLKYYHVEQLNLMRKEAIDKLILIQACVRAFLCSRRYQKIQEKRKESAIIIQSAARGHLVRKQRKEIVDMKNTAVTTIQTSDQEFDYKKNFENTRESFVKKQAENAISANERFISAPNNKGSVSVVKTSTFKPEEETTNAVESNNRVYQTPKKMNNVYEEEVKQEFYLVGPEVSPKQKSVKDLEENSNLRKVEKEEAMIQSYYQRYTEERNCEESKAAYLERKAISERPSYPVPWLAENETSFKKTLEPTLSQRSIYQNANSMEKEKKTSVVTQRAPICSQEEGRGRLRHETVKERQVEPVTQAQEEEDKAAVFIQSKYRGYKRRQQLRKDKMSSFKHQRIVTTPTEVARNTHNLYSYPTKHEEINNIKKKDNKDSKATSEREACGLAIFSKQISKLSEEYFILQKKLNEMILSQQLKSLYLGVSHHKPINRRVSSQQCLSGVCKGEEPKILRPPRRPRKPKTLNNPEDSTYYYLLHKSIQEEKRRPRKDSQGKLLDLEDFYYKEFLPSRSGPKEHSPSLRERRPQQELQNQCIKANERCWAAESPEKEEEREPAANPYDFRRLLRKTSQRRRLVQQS

[9] = target: T8, GRK7 (Homo sapiens, UniProt Q8WTQ7); assay: HotSpot kinase assay; format: biochemical; conditions: read-out: % Enzyme Activity (relative to DMSO controls)
T8 construct: purchased Reaction Biology Corporation

[10] = target: T9, SBK1 (Homo sapiens, UniProt Q52WX2); assay: HotSpot kinase assay; format: biochemical; conditions: read-out: % Enzyme Activity (relative to DMSO controls)
T9 construct: purchased Reaction Biology Corporation

[11] = target: T10, CDC7/DBF4 (Homo sapiens, UniProt O00311); assay: HotSpot kinase assay; format: biochemical; conditions: read-out: % Enzyme Activity (relative to DMSO controls)
T10 construct: purchased Reaction Biology Corporation

[12] = target: T11, CAMK2a (Homo sapiens, UniProt Q9UQM7); assay: HotSpot kinase assay; format: biochemical; conditions: read-out: % Enzyme Activity (relative to DMSO controls)
T11 construct: purchased Reaction Biology Corporation

[13] = target: T12, MEKK6 (Homo sapiens, UniProt O95382); assay: HotSpot kinase assay; format: biochemical; conditions: read-out: % Enzyme Activity (relative to DMSO controls)
T12 construct: purchased Reaction Biology Corporation

[14] = target: T13, TAK1 (Homo sapiens, UniProt O43318); assay: HotSpot kinase assay; format: biochemical; conditions: read-out: % Enzyme Activity (relative to DMSO controls)
T13 construct: purchased Reaction Biology Corporation
T13 sequence (O43318 1-303 limits assumed): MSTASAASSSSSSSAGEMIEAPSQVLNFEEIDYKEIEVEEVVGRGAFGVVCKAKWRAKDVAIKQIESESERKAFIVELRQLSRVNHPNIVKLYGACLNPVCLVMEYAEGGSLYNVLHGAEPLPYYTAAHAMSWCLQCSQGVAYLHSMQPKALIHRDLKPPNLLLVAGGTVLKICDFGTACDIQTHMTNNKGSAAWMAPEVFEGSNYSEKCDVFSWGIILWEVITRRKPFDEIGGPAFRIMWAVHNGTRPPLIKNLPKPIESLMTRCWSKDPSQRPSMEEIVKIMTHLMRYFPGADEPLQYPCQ
T13 sequence (Q15750 437-504 partner limits assumed): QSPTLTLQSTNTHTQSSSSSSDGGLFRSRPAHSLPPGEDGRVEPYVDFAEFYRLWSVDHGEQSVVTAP

[15] = target: T14, JNK3 (Homo sapiens, UniProt P53779); assay: HotSpot kinase assay; format: biochemical; conditions: read-out: % Enzyme Activity (relative to DMSO controls)
T14 construct: purchased Reaction Biology Corporation

[16] = target: T15, NEK11 (Homo sapiens, UniProt Q8NG66); assay: HotSpot kinase assay; format: biochemical; conditions: read-out: % Enzyme Activity (relative to DMSO controls)
T15 construct: purchased Reaction Biology Corporation
T15 sequence (Q8NG66 whole entry): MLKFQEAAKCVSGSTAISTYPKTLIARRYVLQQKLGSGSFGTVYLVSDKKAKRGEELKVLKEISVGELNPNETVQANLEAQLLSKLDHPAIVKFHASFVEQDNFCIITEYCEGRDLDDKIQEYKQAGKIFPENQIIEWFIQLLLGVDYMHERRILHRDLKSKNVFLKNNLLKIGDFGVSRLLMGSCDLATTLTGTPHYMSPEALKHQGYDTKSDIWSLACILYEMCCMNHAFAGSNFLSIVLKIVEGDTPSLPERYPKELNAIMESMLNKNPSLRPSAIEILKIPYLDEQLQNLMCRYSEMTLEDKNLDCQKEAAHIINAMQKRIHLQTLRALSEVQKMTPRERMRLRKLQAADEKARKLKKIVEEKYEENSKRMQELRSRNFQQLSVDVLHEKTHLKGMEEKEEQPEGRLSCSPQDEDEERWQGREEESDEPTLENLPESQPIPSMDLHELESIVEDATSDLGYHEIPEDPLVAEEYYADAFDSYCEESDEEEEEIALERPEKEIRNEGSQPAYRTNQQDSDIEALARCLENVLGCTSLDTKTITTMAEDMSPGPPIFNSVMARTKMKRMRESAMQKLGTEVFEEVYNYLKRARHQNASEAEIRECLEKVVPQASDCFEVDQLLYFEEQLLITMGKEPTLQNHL

[17] = target: T16, MEK5 (Homo sapiens, UniProt Q13163); assay: HotSpot kinase assay; format: biochemical; conditions: read-out: % Enzyme Activity (relative to DMSO controls)
T16 construct: purchased Reaction Biology Corporation

[18] = viability of confluent cells; format: cell-based, human; conditions: human, HaCat cells at 90–100% confluence, 120 h, replicates (Fig 1c source data), read-out: viability, odu as a percentage of the DMSO control
[19] = system: HaCat cells; assay: viability of confluent cells; format: cell-based, human; conditions: 10 μM; for viability, odu as a percentage of the DMSO control: replicates (Fig 1c source data)
[20] = target: T17, PKN3/PRK3 (Homo sapiens, UniProt Q6P5Z2); assay: HotSpot kinase assay; format: biochemical; conditions: read-out: % Enzyme Activity (relative to DMSO controls)
T17 construct: purchased Reaction Biology Corporation

[21] = target: T18, CAMK1b (Homo sapiens, UniProt Q6P2M8); assay: HotSpot kinase assay; format: biochemical; conditions: read-out: % Enzyme Activity (relative to DMSO controls)
T18 construct: purchased Reaction Biology Corporation

[22] = target: T19, MST1/STK4 (Homo sapiens, UniProt Q13043); assay: HotSpot kinase assay; format: biochemical; conditions: read-out: % Enzyme Activity (relative to DMSO controls)
T19 construct: purchased Reaction Biology Corporation
T19 sequence (Q13043 whole entry): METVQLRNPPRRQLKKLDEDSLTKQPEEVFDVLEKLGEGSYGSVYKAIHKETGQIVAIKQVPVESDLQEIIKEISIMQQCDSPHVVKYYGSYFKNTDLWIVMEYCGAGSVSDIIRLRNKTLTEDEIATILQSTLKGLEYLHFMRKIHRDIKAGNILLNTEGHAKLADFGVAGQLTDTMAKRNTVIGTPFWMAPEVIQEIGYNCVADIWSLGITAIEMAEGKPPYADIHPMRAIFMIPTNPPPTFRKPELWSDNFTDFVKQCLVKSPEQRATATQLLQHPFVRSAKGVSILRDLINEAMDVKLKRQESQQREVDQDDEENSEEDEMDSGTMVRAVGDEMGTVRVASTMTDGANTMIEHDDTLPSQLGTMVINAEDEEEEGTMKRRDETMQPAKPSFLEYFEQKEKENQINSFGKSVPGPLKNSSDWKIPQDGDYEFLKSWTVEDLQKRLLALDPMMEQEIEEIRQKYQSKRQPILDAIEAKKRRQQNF

[23] = cell proliferation and viability, ~50% confluent; conditions: human, cell proliferation and viability, odu as a percentage of the DMSO control, 120 h (Fig 1d source data)
[24] = system: Primary vaginal epithelial cells; assay: cell proliferation and viability, ~50% confluent; conditions: for cell proliferation and viability, odu as a percentage of the DMSO control: 120 h (Fig 1d source data)
[25] = target: T20, ALK4/ACVR1B (Homo sapiens, UniProt P36896); assay: HotSpot kinase assay; format: biochemical; conditions: read-out: % Enzyme Activity (relative to DMSO controls)
T20 construct: purchased Reaction Biology Corporation

[26] = system: MDCK-MDR1 cell; conditions: 5 µM
[27] = target: T21, ALK6/BMPR1B (Homo sapiens, UniProt O00238); assay: HotSpot kinase assay; format: biochemical; conditions: read-out: % Enzyme Activity (relative to DMSO controls)
T21 construct: purchased Reaction Biology Corporation

[28] = target: T22, c-MET (Homo sapiens, UniProt P08581); assay: biochemical; conditions: read-out: % Enzyme Activity (relative to DMSO controls)
T22 construct: purchased Reaction Biology Corporation

[29] = target: T23, STK22D/TSSK1 (Homo sapiens, UniProt Q9BXA7); assay: HotSpot kinase assay; format: biochemical; conditions: read-out: % Enzyme Activity (relative to DMSO controls)
T23 construct: purchased Reaction Biology Corporation

[30] = target: T24, MUSK (Homo sapiens, UniProt O15146); assay: HotSpot kinase assay; format: biochemical; conditions: read-out: % Enzyme Activity (relative to DMSO controls)
T24 construct: purchased Reaction Biology Corporation

[31] = Parallel artificial membrane permeability assay (PAMPA); format: in vitro ADME
[32] = target: T25, CDK19/cyclin C (Homo sapiens, UniProt Q9BWU1); assay: HotSpot kinase assay; format: biochemical; conditions: read-out: % Enzyme Activity (relative to DMSO controls)
T25 construct: purchased Reaction Biology Corporation

[33] = target: T26, JNK1 (Homo sapiens, UniProt P45983); assay: HotSpot kinase assay; format: biochemical; conditions: read-out: % Enzyme Activity (relative to DMSO controls)
T26 construct: purchased Reaction Biology Corporation

[34] = target: T27, CDK1/cyclin A (Homo sapiens, UniProt P06493); assay: HotSpot kinase assay; format: biochemical; conditions: read-out: % Enzyme Activity (relative to DMSO controls)
T27 construct: purchased Reaction Biology Corporation

[35] = target: T28, PLK1 (Homo sapiens, UniProt P53350); assay: HotSpot kinase assay; format: biochemical; conditions: read-out: % Enzyme Activity (relative to DMSO controls)
T28 construct: purchased Reaction Biology Corporation

[36] = target: T29, TRKC (Homo sapiens, UniProt Q16288); assay: HotSpot kinase assay; format: biochemical; conditions: read-out: % Enzyme Activity (relative to DMSO controls)
T29 construct: purchased Reaction Biology Corporation

[37] = target: T30, MKK6 (Homo sapiens, UniProt P52564); assay: HotSpot kinase assay; format: biochemical; conditions: read-out: % Enzyme Activity (relative to DMSO controls)
T30 construct: purchased Reaction Biology Corporation
T30 sequence (P52564 whole entry): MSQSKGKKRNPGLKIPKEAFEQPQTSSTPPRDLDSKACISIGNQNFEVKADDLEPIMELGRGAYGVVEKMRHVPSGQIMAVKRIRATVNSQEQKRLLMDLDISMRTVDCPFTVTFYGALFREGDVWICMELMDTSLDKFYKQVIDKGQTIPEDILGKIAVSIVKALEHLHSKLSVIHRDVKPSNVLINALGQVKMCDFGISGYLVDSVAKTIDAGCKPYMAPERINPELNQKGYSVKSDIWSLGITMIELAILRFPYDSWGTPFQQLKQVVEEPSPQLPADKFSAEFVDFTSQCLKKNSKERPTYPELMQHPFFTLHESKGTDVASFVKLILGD

**Q.** For `CO[C@@H]1[C@H](N(C)C(=O)CCC(=O)NCc2cn(CCCS(=O)(=O)O)nn2)C[C@H]2O[C@]1(C)n1c3ccccc3c3c4c(c5c6ccccc6n2c5c31)C(=O)NC4` [CIMSS], which remaining activity at 10 µM [1] is on record?
**A.** 81.7%

**Q.** What about the remaining activity at 10 µM [2] of the same compound?
**A.** 4.13%

**Q.** And the remaining activity at 10 µM [3]?
**A.** 74.5%

**Q.** What about the remaining activity at 10 µM [4] of the same compound?
**A.** 26.2%

**Q.** And the remaining activity at 10 µM [5]?
**A.** 10.1%

**Q.** And the induction of apoptosis [6]?
**A.** did not induce apoptosis

**Q.** And the remaining activity at 10 µM [7]?
**A.** 6.48%

**Q.** What about the remaining activity at 10 µM [8] of the same compound?
**A.** 6.46%

**Q.** And the remaining activity at 10 µM [9]?
**A.** 7.19%

**Q.** What about the remaining activity at 10 µM [10] of the same compound?
**A.** 78.8%

**Q.** What about the remaining activity at 10 µM [11] of the same compound?
**A.** 3.98%

**Q.** And the remaining activity at 10 µM [12]?
**A.** 1.36%

**Q.** And the remaining activity at 10 µM [13]?
**A.** 110%

**Q.** What about the remaining activity at 10 µM [14] of the same compound?
**A.** 7.2%

**Q.** What about the remaining activity at 10 µM [15] of the same compound?
**A.** 23.6%

**Q.** What about the remaining activity at 10 µM [16] of the same compound?
**A.** 52%

**Q.** And the remaining activity at 10 µM [17]?
**A.** 40.4%

**Q.** And the viability at 120 h, 10 µM [18]?
**A.** 98%

**Q.** And the “viability, odu as a percentage of the DMSO control” value ([19]; 24 h)?
**A.** 123% and 93.2% and 107%

**Q.** And the “viability, odu as a percentage of the DMSO control” value ([19]; 120 h)?
**A.** 88.4% and 84%

**Q.** What about the cytotoxicity ([19]; up to 120 h) of the same compound?
**A.** little or no cytotoxicity

**Q.** And the remaining activity at 10 µM [20]?
**A.** 20.2%

**Q.** What about the remaining activity at 10 µM [21] of the same compound?
**A.** 59.5%

**Q.** And the remaining activity at 10 µM [22]?
**A.** 4.33%

**Q.** And the viability at 120 h, 10 µM ([23]; 10 μM)?
**A.** 102%

**Q.** What about the viability at 120 h, 50 µM ([23]; 50 μM) of the same compound?
**A.** 93%

**Q.** What about the “cell proliferation and viability, odu as a percentage of the DMSO control” value ([24]; 10 μM) of the same compound?
**A.** 99.5%

**Q.** And the “cell proliferation and viability, odu as a percentage of the DMSO control” value ([24]; 50 μM)?
**A.** 91.8%

**Q.** And the cytotoxicity ([24]; 10 or 50 μM, up to 120 h)?
**A.** little or no cytotoxicity

**Q.** What about the remaining activity at 10 µM [25] of the same compound?
**A.** 58.3%

**Q.** And the Recover % [26]?
**A.** 96%

**Q.** And the remaining activity at 10 µM [27]?
**A.** 88.3%

**Q.** And the remaining activity at 10 µM [28]?
**A.** 12.4%

**Q.** And the remaining activity at 10 µM [29]?
**A.** 2.71%

**Q.** What about the remaining activity at 10 µM [30] of the same compound?
**A.** 3.33%

**Q.** And the Recover % ([31]; 100 µM)?
**A.** 83%

**Q.** What about the Papp at 5 h, 100 μM ([31]; PAMPA, PBS pH 7.4, 5 h) of the same compound?
**A.** 0.005 ×10⁻⁶ cm/s

**Q.** What about the remaining activity at 10 µM [32] of the same compound?
**A.** 37.9%

**Q.** What about the remaining activity at 10 µM [33] of the same compound?
**A.** 24.8%

**Q.** And the remaining activity at 10 µM [34]?
**A.** 21.3%

**Q.** And the remaining activity at 10 µM [35]?
**A.** 17.1%

**Q.** What about the remaining activity at 10 µM [36] of the same compound?
**A.** 0.34%

**Q.** What about the remaining activity at 10 µM [37] of the same compound?
**A.** 59.7%
